This experiment concerns the target T1, Full length human recombinant HDAC6 protein (Homo sapiens, UniProt Q9UBN7).
T1 sequence (Q9UBN7 1-1215): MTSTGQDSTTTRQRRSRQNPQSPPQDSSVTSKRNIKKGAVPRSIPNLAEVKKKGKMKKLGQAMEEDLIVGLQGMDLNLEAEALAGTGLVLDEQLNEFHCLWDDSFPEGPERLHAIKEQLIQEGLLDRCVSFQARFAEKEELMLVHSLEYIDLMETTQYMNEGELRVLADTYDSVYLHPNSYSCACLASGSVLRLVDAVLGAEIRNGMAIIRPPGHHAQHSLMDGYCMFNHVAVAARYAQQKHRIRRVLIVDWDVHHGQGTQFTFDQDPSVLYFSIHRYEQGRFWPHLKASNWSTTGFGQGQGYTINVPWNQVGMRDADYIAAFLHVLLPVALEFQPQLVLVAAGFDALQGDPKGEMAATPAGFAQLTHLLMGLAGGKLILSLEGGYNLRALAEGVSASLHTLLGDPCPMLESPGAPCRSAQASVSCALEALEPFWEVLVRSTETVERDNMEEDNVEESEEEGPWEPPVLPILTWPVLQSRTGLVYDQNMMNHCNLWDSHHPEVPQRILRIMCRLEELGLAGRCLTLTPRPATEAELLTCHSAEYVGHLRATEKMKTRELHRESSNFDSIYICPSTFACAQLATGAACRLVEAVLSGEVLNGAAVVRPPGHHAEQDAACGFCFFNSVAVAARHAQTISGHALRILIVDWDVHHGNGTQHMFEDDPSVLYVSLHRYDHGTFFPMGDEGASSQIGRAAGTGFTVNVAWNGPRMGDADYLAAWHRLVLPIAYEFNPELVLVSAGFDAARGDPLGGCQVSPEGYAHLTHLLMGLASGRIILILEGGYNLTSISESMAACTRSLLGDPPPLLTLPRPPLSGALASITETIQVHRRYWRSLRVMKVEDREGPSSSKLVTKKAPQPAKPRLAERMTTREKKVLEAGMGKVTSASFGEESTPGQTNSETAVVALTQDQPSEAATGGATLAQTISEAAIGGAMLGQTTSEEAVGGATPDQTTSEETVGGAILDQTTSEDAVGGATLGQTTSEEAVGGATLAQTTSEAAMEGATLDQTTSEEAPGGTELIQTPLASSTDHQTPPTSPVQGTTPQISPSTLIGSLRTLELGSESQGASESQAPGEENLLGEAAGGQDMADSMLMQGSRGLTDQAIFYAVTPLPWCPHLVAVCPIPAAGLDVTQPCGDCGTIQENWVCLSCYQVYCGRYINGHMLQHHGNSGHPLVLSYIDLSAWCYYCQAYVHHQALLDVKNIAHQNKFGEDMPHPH
As to the kind of experiment: In vitro histone deacetylase assay: enzymatic HDAC6 electrophoretic mobility shift assay. Format: biochemical. The settings on record: 1 nM enzyme, 2 μM peptide substrate RHKK(Ac)-NH2, 25° C., 12 concentrations; read-out: Inhibitory Concentration (IC50) Values against HDAC6, Activity Range. In general terms: In EMSA bound probe runs differently from free probe, usually more slowly.

Structures are written as SMILES. Where only a bound is given, the exact number is not on record here.

With `CC(C)(C)OC(=O)N1CCC2(CCC(C(=O)N3CCOc4cc(C(=O)NO)ccc4C3)CC2)C1` (centres unmarked) [tert-butyl 8-(8-(hydroxycarbamoyl)-2,3,4,5-tetrahydrobenzo[f][1,4]oxazepine-4-carbonyl)-2-azaspiro[4.5]decane-2-carboxylate], the IC50 was at most 0.1 µM.
The same measure for `O=C(NO)c1ccc2c(n1)OCCN(C(=O)C1CCCCC1)C2` [4-(cyclohexanecarbonyl)-N-hydroxy-2,3,4,5-tetrahydropyrido[3,2-f][1,4]oxazepine-8-carboxamide]: 0.1 to 0.5 µM; for `Cc1cc(C)c(CC(=O)N2CCOc3cc(C(=O)NO)ccc3C2)c(C)c1` [N-hydroxy-4-(2-mesitylacetyl)-2,3,4,5-tetrahydrobenzo[f][1,4]oxazepine-8-carboxamide]: at most 0.1 µM; for `O=C(NO)c1ccc2c(c1)OCCN(C(=O)C1(c3ccccc3C(F)(F)F)CC1)C2` [N-hydroxy-4-(1-(2-(trifluoromethyl)phenyl)cyclopropane-1-carbonyl)-2,3,4,5-tetrahydrobenzo[f][1,4]oxazepine-8-carboxamide]: at most 0.1 µM.
With `CC(C)(C)OC(=O)N1CCC2(CC1)CC2C(=O)N1CCOc2cc(C(=O)NO)ccc2C1` (centres unmarked) [tert-butyl 1-(8-(hydroxycarbamoyl)-2,3,4,5-tetrahydrobenzo[f][1,4]oxazepine-4-carbonyl)-6-azaspiro[2.5]octane-6-carboxylate], the IC50 lay within 0.1 to 0.5 µM.
The value for `CC(C)(C)OC(=O)N1CCC2(CCCC2C(=O)N2CCOc3cc(C(=O)NO)ccc3C2)C1` (centres unmarked) [tert-butyl 6-(8-(hydroxycarbamoyl)-2,3,4,5-tetrahydrobenzo[f][1,4]oxazepine-4-carbonyl)-2-azaspiro[4.4]nonane-2-carboxylate] was 0.1 to 0.5 µM.
The value for `C[C@H]1COc2cc(C(=O)NO)ccc2CN1C(=O)[C@]1(C)CCOC1` [(S)-N-hydroxy-3-methyl-4-((R)-3-methyltetrahydrofuran-3-carbonyl)-2,3,4,5-tetrahydrobenzo[f][1,4]oxazepine-8-carboxamide] was at most 0.1 µM.
For `O=C(NO)c1ccc2c(c1)OCCN(C(=O)C(OCC(F)(F)F)c1ccccc1)C2` (centres unmarked) [N-hydroxy-4-(2-phenyl-2-(2,2,2-trifluoroethoxy)acetyl)-2,3,4,5-tetrahydrobenzo[f][1,4]oxazepine-8-carboxamide], the IC50 was 0.1 to 0.5 µM.
The same measure for `C[C@@H]1c2ccc(C(=O)NO)cc2OCCN1C(=O)C1(C)CCC1` [(R)-N-hydroxy-5-methyl-4-(1-methylcyclobutane-1-carbonyl)-2,3,4,5-tetrahydrobenzo[f][1,4]oxazepine-8-carboxamide]: over 0.5 µM; for `O=C(NO)c1ccc2c(c1)OCCN(C(=O)c1ccc(C(F)(F)F)cc1)C2` [N-hydroxy-4-(4-(trifluoromethyl)benzoyl)-2,3,4,5-tetrahydrobenzo[f][1,4]oxazepine-8-carboxamide]: 0.1 to 0.5 µM; for `O=C(NO)c1ccc2c(c1)OCCN(C(=O)c1ccc3occc3c1)C2` [4-(benzofuran-5-carbonyl)-N-hydroxy-2,3,4,5-tetrahydrobenzo[f][1,4]oxazepine-8-carboxamide]: 0.1 to 0.5 µM.
For `CC1(C(=O)N2CC(=O)Nc3ccc(C(=O)NO)cc3C2)CCC1` [N-hydroxy-4-(1-methylcyclobutane-1-carbonyl)-2-oxo-2,3,4,5-tetrahydro-1H-benzo[e][1,4]diazepine-7-carboxamide], the IC50 is 0.1 to 0.5 µM.
The same measure for `O=C(NO)c1ccc2c(c1)OCCN(C(=O)C1(Cc3ccccc3)CC1)C2` [4-(1-benzylcyclopropane-1-carbonyl)-N-hydroxy-2,3,4,5-tetrahydrobenzo[f][1,4]oxazepine-8-carboxamide]: at most 0.1 µM; for `C[C@H]1COc2cc(C(=O)NO)ccc2CN1C(=O)[C@]1(C)CCCCO1` [(S)-N-hydroxy-3-methyl-4-((S)-2-methyltetrahydro-2H-pyran-2-carbonyl)-2,3,4,5-tetrahydrobenzo[f][1,4]oxazepine-8-carboxamide]: at most 0.1 µM.
The same measure for `C[C@H]1COc2cc(C(=O)NO)ccc2CN1C(=O)C1CCC(C)(C)O1` (stereo partly drawn) [(3S)-4-(5,5-dimethyltetrahydrofuran-2-carbonyl)-N-hydroxy-3-methyl-2,3,4,5-tetrahydrobenzo[f][1,4]oxazepine-8-carboxamide]: at most 0.1 µM.
`O=C(NO)c1ccc2c(c1)OCCN(C(=O)C1CCCC13CCNC3)C2` (centres unmarked) [N-hydroxy-4-(2-azaspiro[4.4]nonane-6-carbonyl)-2,3,4,5-tetrahydrobenzo[f][1,4]oxazepine-8-carboxamide]: the IC50 fell in the range of 0.1 to 0.5 µM.
The same measure for `Cc1cccc(C)c1C(=O)N1CCOc2cc(C(=O)NO)ccc2C1` [4-(2,6-dimethylbenzoyl)-N-hydroxy-2,3,4,5-tetrahydrobenzo[f][1,4]oxazepine-8-carboxamide]: 0.1 to 0.5 µM; for `O=C(NO)c1ccc2c(c1)OCCN(C(=O)C1OC3(CCNCC3)c3ccccc31)C2` (centres unmarked) [N-hydroxy-4-(3H-spiro[isobenzofuran-1,4′-piperidine]-3-carbonyl)-2,3,4,5-tetrahydrobenzo[f][1,4]oxazepine-8-carboxamide]: 0.1 to 0.5 µM; for `Cc1nnnn1C(C(=O)N1CCOc2cc(C(=O)NO)ccc2C1)c1ccccc1` (centres unmarked) [N-hydroxy-4-(2-(5-methyl-1H-tetrazol-1-yl)-2-phenylacetyl)-2,3,4,5-tetrahydrobenzo[f][1,4]oxazepine-8-carboxamide]: 0.1 to 0.5 µM.
The value for `CC(C)COc1ccc(C(C)(C)C(=O)N2CCOc3cc(C(=O)NO)ccc3C2)cc1` [N-hydroxy-4-(2-(4-isobutoxyphenyl)-2-methylpropanoyl)-2,3,4,5-tetrahydrobenzo[f][1,4]oxazepine-8-carboxamide] was 0.1 to 0.5 µM.
The value for `C[C@H]1COc2cc(C(=O)NO)ccc2CN1C(=O)C1CC(Oc2ccccc2)C1` (single isomer, unassigned) was at most 0.1 µM.
As to `C[C@H]1COc2cc(C(=O)NO)ccc2CN1C(=O)C(C)(C)C1CCOCC1` [(S)-N-hydroxy-3-methyl-4-(2-methyl-2-(tetrahydro-2H-pyran-4-yl)propanoyl)-2,3,4,5-tetrahydrobenzo[f][1,4]oxazepine-8-carboxamide], the IC50 is at most 0.1 µM.
The value for `CC(C)(C)OC(=O)N1CC2(CC(C(=O)N3CCOc4cc(C(=O)NO)ccc4C3)CS2(=O)=O)C1` (centres unmarked) [tert-butyl 7-(8-(hydroxycarbamoyl)-2,3,4,5-tetrahydrobenzo[f][1,4]oxazepine-4-carbonyl)-5-thia-2-azaspiro[3.4]octane-2-carboxylate 5,5-dioxide] was 0.1 to 0.5 µM; that for `O=C(NO)c1ccc2c(c1)OCCN(C(=O)C1CCS(=O)(=O)CC1)C2` [4-(1,1-dioxidotetrahydro-2H-thiopyran-4-carbonyl)-N-hydroxy-2,3,4,5-tetrahydrobenzo[f][1,4]oxazepine-8-carboxamide] was at most 0.1 µM; that for `O=C(NO)c1ccc2c(c1)OCCN(C(=O)CCc1ccccc1)C2` [N-hydroxy-4-(3-phenylpropanoyl)-2,3,4,5-tetrahydrobenzo[f][1,4]oxazepine-8-carboxamide] was at most 0.1 µM.
The same measure for `C[C@H]1COc2cc(C(=O)NO)ccc2CN1C(=O)C1(C)CCOCC1` [(S)-N-hydroxy-3-methyl-4-(4-methyltetrahydro-2H-pyran-4-carbonyl)-2,3,4,5-tetrahydrobenzo[f][1,4]oxazepine-8-carboxamide]: at most 0.1 µM; for `Cc1ccn(C(C)(C)C(=O)N2CCOc3cc(C(=O)NO)ccc3C2)n1` [N-hydroxy-4-(2-methyl-2-(3-methyl-1H-pyrazol-1-yl)propanoyl)-2,3,4,5-tetrahydrobenzo[f][1,4]oxazepine-8-carboxamide]: at most 0.1 µM.
The value for `COC[C@H]1COc2cc(C(=O)NO)ccc2CN1C(=O)C1CCOCC1` [(S)-N-hydroxy-3-(methoxymethyl)-4-(tetrahydro-2H-pyran-4-carbonyl)-2,3,4,5-tetrahydrobenzo[f][1,4]oxazepine-8-carboxamide] was at most 0.1 µM; that for `COCC1(C(=O)N2Cc3ccc(C(=O)NO)cc3OC[C@@H]2C)COC1` [(S)-N-hydroxy-4-(3-(methoxymethyl)oxetane-3-carbonyl)-3-methyl-2,3,4,5-tetrahydrobenzo[f][1,4]oxazepine-8-carboxamide] was at most 0.1 µM.
